Assay type in all cases: nucleic-acid assay
Assay [1] relates to Nucleic Acid. The assay is described as follows: Binding affinity to DNA 3'-GCG TTA A ATT GCG-5' assessed as melting temperature.
The test system of assay [2] is Nucleic Acid. The assay is described as follows: Binding affinity to DNA 3'-GCG TTA G ATT GCG-5' assessed as melting temperature.
Assay [3] relates to Nucleic Acid. The assay is described as follows: Binding affinity to DNA 3'-GCG TTA C ATT GCG-5' assessed as melting temperature.
Assay [4] relates to Nucleic Acid. The assay is described as follows: Binding affinity to DNA 3'-GCG TTA T ATT GCG-5' assessed as melting temperature.
Assay [5] deals with Nucleic Acid. The assay is described as follows: Binding affinity to DNA 3'-GCG TTA A ATT GCG-5' assessed as change in fluorescence emission at 2.5 uM by UV-Vis spectrophotometric analysis at pH 7.
Assay [6] concerns Nucleic Acid. The assay is described as follows: Binding affinity to DNA 3'-GCG TTA G ATT GCG-5' assessed as change in fluorescence emission at 2.5 uM by UV-Vis spectrophotometric analysis at pH 7.
In assay [7] the test system is Nucleic Acid. Nature of the assay: Binding affinity to DNA 3'-GCG TTA C ATT GCG-5' assessed as change in fluorescence emission at 2.5 uM by UV-Vis spectrophotometric analysis at pH 7.
Assay [8] has as its system Nucleic Acid. The assay is described as follows: Binding affinity to DNA 3'-GCG TTA T ATT GCG-5' assessed as change in fluorescence emission at 2.5 uM by UV-Vis spectrophotometric analysis at pH 7.
The subject of assay [9] is Nucleic Acid. Nature of the assay: Binding affinity to DNA 3'-GCG TTA A ATT GCG-5' assessed as change in fluorescence emission at 2.5 uM by UV transilluminator analysis.
For assay [10], the system named is Nucleic Acid. The assay is described as follows: Binding affinity to DNA 3'-GCG TTA G ATT GCG-5' assessed as change in fluorescence emission at 2.5 uM by UV transilluminator analysis.
The subject of assay [11] is Nucleic Acid. The assay is described as follows: Binding affinity to DNA 3'-GCG TTA C ATT GCG-5' assessed as change in fluorescence emission at 2.5 uM by UV transilluminator analysis.
In assay [12] the test system is Nucleic Acid. Nature of the assay: Binding affinity to DNA 3'-GCG TTA T ATT GCG-5' assessed as change in fluorescence emission at 2.5 uM by UV transilluminator analysis.

The source made the active and inactive calls. The calls are words filed in the database; no cut-off is given here.

Regarding `COc1ccc(C#Cc2nc3c(=O)[nH]c(N)nc3n2[C@H]2C[C@H](OP(=O)(O)OC[C@H]3O[C@@H](n4cc(C)c(=O)[nH]c4=O)C[C@@H]3OP(=O)(O)OC[C@H]3O[C@@H](n4cnc5c(N)ncnc54)C[C@@H]3OP(=O)(O)OC[C@H]3O[C@@H](n4cnc5c(N)ncnc54)C[C@@H]3OP(=O)(O)OC[C@H]3O[C@@H](n4ccc(N)nc4=O)C[C@@H]3OP(=O)(O)OC[C@H]3O[C@@H](n4cnc5c(=O)[nH]c(N)nc54)C[C@@H]3OP(=O)(O)OC[C@H]3O[C@@H](n4ccc(N)nc4=O)C[C@@H]3O)[C@@H](COP(=O)(O)O[C@H]3C[C@H](n4cc(C)c(=O)[nH]c4=O)O[C@@H]3COP(=O)(O)O[C@H]3C[C@H](n4cnc5c(N)ncnc54)O[C@@H]3COP(=O)(O)O[C@H]3C[C@H](n4cnc5c(N)ncnc54)O[C@@H]3COP(=O)(O)O[C@H]3C[C@H](n4ccc(N)nc4=O)O[C@@H]3COP(=O)(O)O[C@H]3C[C@H](n4cnc5c(=O)[nH]c(N)nc54)O[C@@H]3COP(=O)(O)O[C@H]3C[C@H](n4ccc(N)nc4=O)O[C@@H]3CO)O2)c2ccccc12`, the Tm was 49.2 °C in [1], 49.6 °C in assay [2], 49.4 °C in assay [3] and 46.7 °C in assay [4]. In addition, the result in assay [5] was Active. Also, the outcome in assay [6], in [7] and in assay [8] was inactive.

Turning to `COc1ccc(C#Cc2nc3c(=O)[nH]c(N)nc3n2[C@H]2C[C@H](OP(=O)(O)OC[C@H]3O[C@@H](n4cc(C)c(=O)[nH]c4=O)C[C@@H]3OP(=O)(O)OC[C@H]3O[C@@H](n4cnc5c(N)ncnc54)C[C@@H]3OP(=O)(O)OC[C@H]3O[C@@H](n4cnc5c(N)ncnc54)C[C@@H]3OP(=O)(O)OC[C@H]3O[C@@H](n4ccc(N)nc4=O)C[C@@H]3OP(=O)(O)OC[C@H]3O[C@@H](n4cnc5c(=O)[nH]c(N)nc54)C[C@@H]3OP(=O)(O)OC[C@H]3O[C@@H](n4ccc(N)nc4=O)C[C@@H]3O)[C@@H](COP(=O)(O)O[C@H]3C[C@H](n4cc(C)c(=O)[nH]c4=O)O[C@@H]3COP(=O)(O)O[C@H]3C[C@H](n4cnc5c(N)ncnc54)O[C@@H]3COP(=O)(O)O[C@H]3C[C@H](n4cnc5c(N)ncnc54)O[C@@H]3COP(=O)(O)O[C@H]3C[C@H](n4ccc(N)nc4=O)O[C@@H]3COP(=O)(O)O[C@H]3C[C@H](n4cnc5c(=O)[nH]c(N)nc54)O[C@@H]3COP(=O)(O)O[C@H]3C[C@H](n4ccc(N)nc4=O)O[C@@H]3CO)O2)cc1`, the Tm in [1] worked out at 49.7 °C; in assay [2], 49.8 °C; in assay [3] it was 50.5 °C; in assay [4], 45.1 °C. The outcome in assay [5], in assay [9], in assay [10], in assay [11] and in [12] was Active. The result in assay [6], in [7] and in assay [8] was inactive.

For the compound `Cc1cn([C@H]2C[C@H](OP(=O)(O)OC[C@H]3O[C@@H](n4c(C#Cc5ccccc5)nc5c(=O)[nH]c(N)nc54)C[C@@H]3OP(=O)(O)OC[C@H]3O[C@@H](n4cc(C)c(=O)[nH]c4=O)C[C@@H]3OP(=O)(O)OC[C@H]3O[C@@H](n4cnc5c(N)ncnc54)C[C@@H]3OP(=O)(O)OC[C@H]3O[C@@H](n4cnc5c(N)ncnc54)C[C@@H]3OP(=O)(O)OC[C@H]3O[C@@H](n4ccc(N)nc4=O)C[C@@H]3OP(=O)(O)OC[C@H]3O[C@@H](n4cnc5c(=O)[nH]c(N)nc54)C[C@@H]3OP(=O)(O)OC[C@H]3O[C@@H](n4ccc(N)nc4=O)C[C@@H]3O)[C@@H](COP(=O)(O)O[C@H]3C[C@H](n4cnc5c(N)ncnc54)O[C@@H]3COP(=O)(O)O[C@H]3C[C@H](n4cnc5c(N)ncnc54)O[C@@H]3COP(=O)(O)O[C@H]3C[C@H](n4ccc(N)nc4=O)O[C@@H]3COP(=O)(O)O[C@H]3C[C@H](n4cnc5c(=O)[nH]c(N)nc54)O[C@@H]3COP(=O)(O)O[C@H]3C[C@H](n4ccc(N)nc4=O)O[C@@H]3CO)O2)c(=O)[nH]c1=O`, the result in [5], in [6], in [7] and in [8] was inactive.

On to `COc1cc(OC)c(C#Cc2nc3c(=O)[nH]c(N)nc3n2[C@H]2C[C@H](OP(=O)(O)OC[C@H]3O[C@@H](n4cc(C)c(=O)[nH]c4=O)C[C@@H]3OP(=O)(O)OC[C@H]3O[C@@H](n4cnc5c(N)ncnc54)C[C@@H]3OP(=O)(O)OC[C@H]3O[C@@H](n4cnc5c(N)ncnc54)C[C@@H]3OP(=O)(O)OC[C@H]3O[C@@H](n4ccc(N)nc4=O)C[C@@H]3OP(=O)(O)OC[C@H]3O[C@@H](n4cnc5c(=O)[nH]c(N)nc54)C[C@@H]3OP(=O)(O)OC[C@H]3O[C@@H](n4ccc(N)nc4=O)C[C@@H]3O)[C@@H](COP(=O)(O)O[C@H]3C[C@H](n4cc(C)c(=O)[nH]c4=O)O[C@@H]3COP(=O)(O)O[C@H]3C[C@H](n4cnc5c(N)ncnc54)O[C@@H]3COP(=O)(O)O[C@H]3C[C@H](n4cnc5c(N)ncnc54)O[C@@H]3COP(=O)(O)O[C@H]3C[C@H](n4ccc(N)nc4=O)O[C@@H]3COP(=O)(O)O[C@H]3C[C@H](n4cnc5c(=O)[nH]c(N)nc54)O[C@@H]3COP(=O)(O)O[C@H]3C[C@H](n4ccc(N)nc4=O)O[C@@H]3CO)O2)c(OC)c1`, for which the Tm in assay [1] worked out at 52.2 °C; in assay [2] it was 46.2 °C; in assay [3], 45.5 °C; in assay [4], 42.8 °C. Further, the result in assay [5] was Active. Besides, the outcome in assay [6], in assay [7] and in assay [8] was inactive.

For the origin of these results see ChEMBL document CHEMBL2057207, “Fluorometric detection of adenine in target DNA by exciplex formation with fluorescent 8-arylethynylated deoxyguanosine” (Bioorg Med Chem Lett, 2012).
